Laboratory results reported in patent US7238677B2, “Prevention of urogenital infections” (Kimberly-Clark Worldwide, Inc., priority 2003, dated 2007).

Assays:
Type in all cases: cell-based
[1] = test system: E. coli, ATCC 53505; test: Effect on E. coli growth (optical density at 540 nm); settings: OD 540 nm at 1, 2 and 3 hours
Method: To test whether hyaluronic acid could influence cellular growth, E. coli, ATCC 53505 cells were cultured overnight in trypticase soy broth. The culture was then diluted to an optical density of 0.1 and hyaluronic acid (1 mg/ml or 5 mg/ml) in PBS was incubated with the E. coli suspension. A control comprising a suspension E. coli treated with PBS was also prepared. The test and control cells were incubated at 37° C. with shaking and the optical density of the bacterial suspensions at 540 nm was measured at 1, 2 and 3 hours after addition of the hyaluronic acid or PBS.
(§1) All the data are expressed as mean±SEM and were analyzed by one-way Analysis of Variance (ANOVA) followed by a Tukey-Kramer Multiple Comparisons Test. Differences were considered significant at the level of p<0.05.

[2] = test system: E. coli with P family pili, ATCC 53505; test: E. coli adhesion to A431 epithelial cells; settings: A431 cells pre-incubated 30 minutes, OD 540 nm of 2 hr culture of bound bacteria
Method: Cultured A431 cells were used as a vaginal epithelial model. A431 cells were obtained from American Cell Type Culture Collection, catalog # CRL-1555. A monolayer of A431 cells was grown on a 24-well tissue culture plate until confluent.
E. coli with P family pili, ATCC 53505, were cultured in trypticase soy broth (TSB) overnight. Phosphate buffered saline (PBS, control) or hyaluronic acid (Sigma catalog # H 1876) solutions at a concentration of 1 mg/ml or 5 mg/ml in PBS was added to the A431 cell layers, using a volume of 1.2 ml/well. After incubation for 30 minutes at 37° C., 0.7 ml of solution was removed from the wells and 0.5 ml of the bacteria suspension was added. […] After 60 minutes, the supernatant in each well was removed and the wells were rinsed thoroughly with PBS to remove all non-bound bacteria. Trypticase soy broth was then added to wells, and the whole system was incubated at 37° C. with shaking for 2 hours. Bacterial concentration was measured by the detection of optical density of bacterial suspension at 540 nm.
as §1

[3] = test system: Candida albicans, ATCC 10231; test: Adherence of Candida albicans to A431 cells; settings: for number of Candida albicans adhering to A431 cells: A431 cells pre-incubated 30 minutes, colony count
Method: A culture of Candida albicans, ATCC 10231, was started as a frozen bead in peptone/glucose culture medium and incubated at 37° C. with shaking for three days before the experiment. A monolayer of A431 cells, ATCC CRL-1555, was grown on a 24-well tissue culture plate until confluent. Hyaluronic acid at concentration of 1 mg/ml PBS or 5 mg/ml PBS was added to the wells (1.2 ml/well), and the plates were incubated for 30 minutes at 35° C. A control plate of confluent A431 cells was also prepared that received 1.2 ml/well PBS and no hyaluronic acid. After the 30 min incubation, 0.7 ml of solution was removed from the wells and 0.5 ml of yeast suspension (1×10^6 cfu/ml) was added. After 2 hours of incubation, the supernatant was removed from the wells and the wells were rinsed thoroughly with PBS to remove all non-bound yeast. Then, 0.2 ml of 0.25% trypsin/EDTA was added to each well and the plates were incubated at 35° C. for 15 min. Trypsinization was stopped by adding 1 ml of 10% fetal bovine serum in culture medium. The trypsinized cell/yeast suspension was centrifuged and re-suspended in 1 ml of the medium. Serial dilutions of the Candida albicans/A431 cell suspension were plated on Sabouraud's dextrose agar plates and incubated overnight at 35° C. The number of colonies on each plate was counted and the number of yeast attached to the cells in each well was calculated.
All the data are expressed as mean ±SEM and were analyzed by one-way Analysis of Variance (ANOVA) followed by a Tukey-Kramer Multiple Comparisons Test. Differences were considered significant at the level of p<0.05.

In the case of hyaluronic acid, the “effect on bacterial growth” value ([1]; 1 mg/ml in PBS) is reported as “neither of the hyaluronic acid solutions had any effect on bacterial growth”, the “effect on bacterial growth” value ([1]; 5 mg/ml in PBS) is reported as “neither of the hyaluronic acid solutions had any effect on bacterial growth” and the “number of E. coli attached to A431 cells” value ([2]; 1 mg/ml in PBS) is reported as “lesser effect”. The “number of E. coli attached to A431 cells” value ([2]; 5 mg/ml in PBS) was “significantly inhibited”, the “number of Candida albicans adhering to A431 cells” value ([3]; 1 mg/ml in PBS) was “the effect was not so significant” and the “number of Candida albicans adhering to A431 cells” value ([3]; 5 mg/ml in PBS) was “significantly inhibited”. The “number of yeast colonies from treated A431 cells (FIG. 4)” value ([3]; versus PBS-treated A431 cells, concentration not given) was “fewer yeast colonies”.
